Reference: patent publication US8058306B2, “Phenyl pyrrole aminoguanidine derivatives” (Action Pharma A/S, priority 2006, dated 2011)

Legend:
murine MC1 receptor = molecular target: T1, murine MC1 receptor (Mus musculus, UniProt Q01727); assay: [125I]-NDP-MSH radio-ligand binding, MC1 receptor (B16-F1 melanoma cells); conditions: 90 min/22° C.
T1 construct: murine B16-F1 melanoma cells expressing MC1, but not other MC receptors, were used; endogenous in cells; host or cells: murine B16-F1 melanoma cells
Procedure: (§1) Determination of binding affinities for MC receptors was performed by [^125I]-[Nle4,D-Phe7]α-MSH ([^125I]-NDP-MSH) radio-ligand binding. In short, murine B16-F1 melanoma cells expressing MC1, but not other MC receptors, were used for binding affinity studies against the murine MC1 receptor (Siegrist et al.; 1988, J. Recept. Res., 8(1-4):323-43). For human MC3, MC4 and MC5 receptor affinities human recombinant CHO cells were used (Schioth et al. 1997, Neuropeptides 31:565-71, 1997). Cells were suspended in HEPES buffer and by use of microwell plates radio-ligands, as well as test compound, in the concentration range of 10^−10 to 10^−6 were added. After incubation at 37° C. (22° C. for the MC1 receptor assay) separation of bound and free [^125I]-NDP-MSH was done by multiple washings with buffer.
(§2) The results were expressed as a percent of control specific binding obtained in the presence of the test compounds. The IC50 values (concentration causing a half-maximal inhibition of control specific binding) and Hill coefficients (nH) were determined by non-linear regression analysis of the competition curves using Hill equation curve fitting. The inhibition constants (Ki) were calculated from the Cheng Prusoff equation (Ki=IC50/(1+(L/KD)), where L=concentration of radio-ligand in the assay, and KD=affinity of the radio-ligand for the receptor).

human MC4 receptor = molecular target: T2, human MC4 receptor (Homo sapiens, UniProt P32245); assay: [125I]-NDP-MSH radio-ligand binding, MC4 (h) receptor (recombinant CHO cells); conditions: 120 min/37° C.
T2 construct: expressed in transfected cells; host or cells: CHO cells
Procedure: as §1, §2

human MC3 receptor = molecular target: T3, human MC3 receptor (Homo sapiens, UniProt P41968); assay: [125I]-NDP-MSH radio-ligand binding, MC3 (h) receptor (recombinant CHO cells); conditions: 60 min/37° C.
T3 construct: expressed in transfected cells; host or cells: CHO cells
Procedure: as §1, §2

human MC5 receptor = molecular target: T4, human MC5 receptor (Homo sapiens, UniProt P33032); assay: [125I]-NDP-MSH radio-ligand binding, MC5 (h) receptor (recombinant CHO cells); conditions: 60 min/37° C.
T4 construct: expressed in transfected cells; host or cells: CHO cells
Procedure: as §1, §2

Measured: Ki

T1 sequence (Q01727 whole entry): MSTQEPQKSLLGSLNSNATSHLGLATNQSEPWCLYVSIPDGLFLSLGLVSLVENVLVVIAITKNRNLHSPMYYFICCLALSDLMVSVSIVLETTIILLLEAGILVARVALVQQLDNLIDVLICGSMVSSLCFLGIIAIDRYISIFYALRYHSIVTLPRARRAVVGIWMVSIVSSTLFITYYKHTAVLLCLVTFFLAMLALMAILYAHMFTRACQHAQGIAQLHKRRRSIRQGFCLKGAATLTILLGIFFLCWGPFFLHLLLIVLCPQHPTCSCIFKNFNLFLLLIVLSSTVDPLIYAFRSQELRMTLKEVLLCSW
T4 sequence (P33032 whole entry): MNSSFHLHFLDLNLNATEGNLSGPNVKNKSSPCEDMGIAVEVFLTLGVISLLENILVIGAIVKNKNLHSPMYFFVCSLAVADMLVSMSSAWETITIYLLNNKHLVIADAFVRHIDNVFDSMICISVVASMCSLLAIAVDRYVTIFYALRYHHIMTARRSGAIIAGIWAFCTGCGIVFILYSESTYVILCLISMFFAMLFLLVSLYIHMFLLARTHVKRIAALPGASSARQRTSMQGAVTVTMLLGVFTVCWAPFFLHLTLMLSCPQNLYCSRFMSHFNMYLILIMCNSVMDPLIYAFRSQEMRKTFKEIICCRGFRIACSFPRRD
T3 sequence (P41968 whole entry): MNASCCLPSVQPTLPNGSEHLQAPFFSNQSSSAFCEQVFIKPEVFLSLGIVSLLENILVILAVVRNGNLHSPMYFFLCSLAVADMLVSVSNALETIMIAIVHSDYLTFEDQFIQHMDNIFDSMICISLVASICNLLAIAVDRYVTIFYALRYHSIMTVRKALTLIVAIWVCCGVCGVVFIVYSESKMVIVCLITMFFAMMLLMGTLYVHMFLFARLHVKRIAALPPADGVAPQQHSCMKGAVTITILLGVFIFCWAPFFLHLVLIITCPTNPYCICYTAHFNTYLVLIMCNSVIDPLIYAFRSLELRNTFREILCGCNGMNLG
T2 sequence (P32245 whole entry): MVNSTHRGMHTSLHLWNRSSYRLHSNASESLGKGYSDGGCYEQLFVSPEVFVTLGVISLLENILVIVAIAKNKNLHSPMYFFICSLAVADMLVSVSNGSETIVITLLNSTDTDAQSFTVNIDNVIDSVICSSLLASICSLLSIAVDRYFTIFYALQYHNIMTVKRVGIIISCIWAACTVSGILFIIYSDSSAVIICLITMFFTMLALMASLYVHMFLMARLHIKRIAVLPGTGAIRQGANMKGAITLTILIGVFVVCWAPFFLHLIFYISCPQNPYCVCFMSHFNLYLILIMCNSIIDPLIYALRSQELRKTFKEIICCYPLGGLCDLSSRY

N=C(N)NN=Cc1cccn1-c1ccc(Cl)cc1 [Reference-compound 1, [1-[4-chlorophenyl)-1H-pyrrol-2-yl-methyleneamino]guanidinium acetate, reference compound]
> 1000 nM: all assays above

N=C(N)NN=Cc1cccn1-c1ccccc1[N+](=O)[O-] [Reference-compound 2, [1-[2-nitrophenyl)-1H-pyrrol-2-yl-methyleneamino]guanidinium acetate, reference compound]
> 1000 nM: all assays above
